Measurements taken from patent US20230364112A1, “Use of Antcin H and Its Derivatives for Treating Central Nervous System Diseases” (ALPS BIOTECH CO., LTD., priority 2020, published 2023).

Columns and labels:
[1] = tested on: NLRP3 inflammasome in J774A.1 macrophages; test: IL-1β ELISA in LPS-primed, ATP-activated J774A.1 macrophages; format: cell-based; conditions: 1 μg/ml LPS 5 h, Antcin H 0.5 h, 5 mM ATP 0.5 h
Experimental: (§1) FIG. 6A: J774A.1 macrophages were treated with or without 1 μg/ml LPS for 5 h, followed by treated with or without Antcin H for 0.5 h. Cells were then activated by 5 mM ATP for 0.5 h; FIG. 6B: J774A.1 macrophages were treated with or without 1 μg/ml LPS for 5 h, followed by treated with or without 50 μM Antcin H for 0.5 h. Cells were then activated by 5 mM ATP for 0-60 min.
(§2) BV2 microglia were treated with or without 1 μg/ml LPS for 5 h, followed by treated with or without 1 or 5 μM Antcin H for 0.5 h. Cells were then activated by 1 mM ATP for 24 h. The IL-1β levels in the supernatants were measured by ELISA, and the levels of iNOS and NLRP3 in the cell lysates were measured by Western blotting. J774A.1 macrophages were treated with or without 1 μg/ml LPS for 5 h, followed by treated with or without Antcin H for 0.5 h. Cells were then activated by 5 mM ATP for 0.5 h. The IL-1β levels in the supernatants were measured by ELISA.

R6/2 mice [2] = test: Neuronal death in R6/2 mice brain (NeuN immunofluorescence staining, Western blotting); format: in vivo; conditions: 10 mg/kg oral gavage daily
Experimental: (§3) FIG. 3A: The numbers of neurons (identified by the expression of NeuN; green color) and the level of mutant huntingtin (red color) in the striatum of the mice were analyzed by confocal microscope. Nuclei were stained with Hoechst (blue color).
(§4) The method was according to the previous report. In brief, brain sections were incubated overnight with anti-lba-I polyclonal antibody (1:500), anti-NeuN polyclonal antibody (1:500), anti-NLRP3 monoclonal antibody (1:200) or anti-EM48 monoclonal antibody (1:500) in PBS containing 5% normal goat serum at 4° C. and then incubated with the corresponding secondary antibody for 2 h at room temperature. Nuclei were stained with Hoechst 33258. Slides were mounted and analyzed with a laser confocal microscope.
The present example further investigates the effect of Antcin H in the neuronal death of R6/2 mice brains by immunofluorescence staining. […] R6/2 mice or WT mice were treated with AH (10 mg/kg of body weight) or vehicle by oral gavage daily starting from the age of 7 weeks to the age of 12 weeks. WT-Vehicle: n=6; WT-AH: n=6; R6/2-vehicle: n=6; R6/2-AH: n=6. The data are presented as the mean±SEM. Label “a” in chart means p<0.05, between WT and R6/2 mice. Label “b” in chart means p<0.05 vs. vehicle-treated R6/2 mice.

STHdh^Q109 cells [3] = test: Cell viability analysis (CCK-8 assay) in a cell model of HD; format: cell-based, mice; conditions: 24 h, vs vehicle-treated cells
From the text: (§5) Conditionally immortalized wild-type STHdh^Q7 striatal neuronal progenitor cells expressing endogenous normal htt (referred to as wild-type striatal cells), and homozygous mutant STHdh^Q109 striatal neuronal progenitor cells from homozygous STHdh^Q109 knock-in mice expressing mutant htt with 109 glutamines (referred to as mutant striatal cells). STHdh^Q7 and STHdh^Q109 cells were generous gifts from Dr. Elena Cattaneo and Marta Valenza (Department of pharmacological sciences and center for stem cell research, University of Milano, Italy). These cells were maintained in an incubation chamber at 33° C. in Dulbecco's modified Eagle's medium supplemented with 10% fetal bovine serum.
STHdh^Q7 and STHdh^Q109 cells were treated with 5 or 10 μM Antcin H or vehicle (DMSO) for 24 h. STHdh^Q7 and STHdh^Q109 cells viability was quantified by the CCK-8 assay. The survival rate of the indicated cells was normalized to those survival rate of vehicle-treated STHdh^Q7 cells.
To investigate the neuroprotective potential of Antcin H in CNS disease, the present example used striatal cell line as an in vitro model of Huntington's disease. STHdh^Q109 cells carry the polyQ-expanded mouse gene Htt, which encodes 109 CAG repeats in the Htt gene. Compared with STHdh^Q109 cells, the control cell line (STHdh^Q7) only carry 7 copies of the CAG repeat. […]

BV2 microglia = test: iNOS and NLRP3 Western blotting in LPS and ATP activated BV2 microglia; format: cell-based; conditions: 1 μg/ml LPS 5 h, 1 or 5 μM Antcin H 0.5 h, 1 mM ATP 24 h
Experimental: as §2
(§6) Microglia are macrophage-like immune cells of the central nervous system. […] (Subhramanyam et al., 2019). In addition, overexpressed IL-1β, the end-product of the NLRP3 inflammasome, plays important roles in the development of many diseases including neurodegenerative diseases (Siew et al., 2019). NLRP3 inflammasome composed of NLRP3, ASC and caspase-1 and controls the maturation and release of IL-1β. NLRP3 inflammasome can be activated by medical relevant stimuli such as ATP from damage tissues and amyloid-β of Alzheimer's disease (Guo et al., 2015). […] BV2 microglia were treated with or without 1 μg/ml LPS for 5 h, followed by treated with or without 1 or 5 μM Antcin H for 0.5 h. Cells were then activated by 1 mM ATP for 24 h. The data are presented as the mean±SEM from three independent experiments. […]

NLRP3 = NLRP3 immunofluorescence staining in striatum of R6/2 mice; format: in vivo; conditions: 10 mg/kg oral gavage daily, age 7 to 12 weeks, vs vehicle-treated R6/2 mice
Experimental: (§7) FIG. 4A: The numbers of activated microglia in the striatum were identified by lba1 staining (green color), and the numbers of NLRP3 positive cells in the striatum were identified by NLRP3 staining (red color). Nuclei were stained with Hoechst (blue color).
as §4
(§8) HD commonly associated with inflammation in nervous system and activated microglia. […] FIG. 4 show Antcin H reduced NLRP3 expression in microglia of R6/2 mice. R6/2 mice or WT mice were treated with AH (10 mg/kg of body weight) or vehicle by oral gavage daily starting from the age of 7 weeks to the age of 12 weeks. WT-Vehicle: n=6; WT-AH: n=6; R6/2-vehicle: n=6; R6/2-AH: n=6. The data are presented as the mean±SEM. Label “a” in chart means p<0.05, between WT and R6/2 mice. Label “b” in chart means p<0.05 vs. vehicle-treated R6/2 mice.

STHdh^Q109 cells [4] = test: Intracellular ROS analysis (CM-H2DCFDA) in a cell model of HD; format: cell-based, mice; conditions: 5 or 10 μM Antcin H, H2DCFDA staining
From the text: as §5
STHdh^Q7 and STHdh^Q109 cells were treated with 5 or 10 μM Antcin H or vehicle (DMSO) in the presence of 10 μM intracellular ROS indicator fluorescent probe CM-H2DCFDA (Molecular Probes, Inc., Eugene, Oregon, USA) for 1 h. Intracellular ROS (Reactive Oxygen Species) levels were measured by detecting the fluorescence intensity (Excitation/Emission: 488 nm/510 nm) using a fluorescence plate reader (Fluoroskan Ascent; Thermo Electron Corporation, Woburn, MA, USA). J774A.1 macrophages were treated with or without 1 μg/ml LPS for 5 h, followed by treated with or without 50 μM Antcin H for 0.5 h. […] The levels of intracellular ROS were measured by CM-H2DCFDA staining and detected by a fluorescence plate reader. […]

mutant huntingtin (mHtt) = test: mHtt aggregation in striatum of R6/2 mice (confocal microscope, filter retardation assay); format: in vivo; conditions: 10 mg/kg oral gavage daily, age 7 to 12 weeks, confocal intensity and filter retardation assay
Experimental: as §3
Brain tissues will be suspended and homogenized in ice-cold RIPA buffer (50 mM Tris-HCl, 0.25% sodium deoxycholate, 1% Triton X-100, 150 mM NaCl, 1 mM phenylmethylsulfonyl fluoride, 1 mM Na3VO4, 0.5 mg/mL aprotinin, 0.1 mM leupeptin, and 4 mM pepstatin), mixed with 2% SDS, and applied to OE66 membrane filters ([…]; Whatman Schleicher and Schuell, Middlesex, UK) through a slot-blot manifold (Bio-Rad, Irvine, CA, USA). The blots will be blocked with 5% skim milk in PBS and incubated overnight with an anti-EM48 antibody (1:500; Millipore Bioscience Research Reagents, Temecula, CA, USA) at 4° C., followed by incubation with the corresponding secondary antibody for 1 h at RT. The immunoreactive bands will be detected by ECL (Pierce, Rockford, IL, USA) and recorded using Kodak XAR-5 film.
The method was according to the previous report. […] Slides were mounted and analyzed with a laser confocal microscope. […]

J774A.1 macrophages = test: ATP-induced intracellular ROS (CM-H2DCFDA) in LPS-primed J774A.1 macrophages; format: cell-based; conditions: 1 μg/ml LPS 5 h, 50 μM Antcin H 0.5 h, 5 mM ATP 0-60 min
Experimental: as §1
STHdh^Q7 and STHdh^Q109 cells were treated with 5 or 10 μM Antcin H or vehicle (DMSO) in the presence of 10 μM intracellular ROS indicator fluorescent probe CM-H2DCFDA (Molecular Probes, Inc., Eugene, Oregon, USA) for 1 h. Intracellular ROS (Reactive Oxygen Species) levels were measured by detecting the fluorescence intensity (Excitation/Emission: 488 nm/510 nm) using a fluorescence plate reader (Fluoroskan Ascent; Thermo Electron Corporation, Woburn, MA, USA). J774A.1 macrophages were treated with or without 1 μg/ml LPS for 5 h, followed by treated with or without 50 μM Antcin H for 0.5 h. […] The levels of intracellular ROS were measured by CM-H2DCFDA staining and detected by a fluorescence plate reader.
In addition, ROS is one of the crucial elements for NLRP3 inflammasome activation (Tschopp and Schroder, 2010). […] The levels of intracellular ROS were measured by CM-H2DCFDA staining and detected at an excitation wavelength of 488 nm and an emission wavelength of 510 nm on a […]. […]

R6/2 mice [5] = test: Disease progression of R6/2 transgenic mouse model of HD (body weight, rotarod, survival, clasping); format: in vivo; conditions: 10 mg/kg oral gavage daily
Experimental: R6/2 mice or wild-type mice were treated with Antcin H (10 mg/kg of body weight) or vehicle by oral gavage daily starting from the age of 7 weeks to the age of 12 weeks. Mice were tested on a Rotarod apparatus three times a week. Motor coordination was assessed using a rotarod apparatus assay (UGO BASILE, Comerio, Italy) at a constant speed (12 rpm) over a period of 2 min. The body weight and the lifespan were monitored weekly.
To investigate the therapeutic potential of Antcin H in the pathogenesis of Huntington's disease, R6/2 mice were used as an animal model of HD. R6/2 mice or wild-type mice were treated with Antcin H (10 mg/kg of body weight) or vehicle by oral gavage daily starting from the age of 7 weeks to the age of 12 weeks. […] WT-Vehicle: n=10; WT-AH: n=10; R6/2-vehicle: n=8; R6/2-AH: n=10. The data are presented as the mean±SEM. Label “a” in chart means p<0.05, between WT and R6/2 mice. Label “b” in chart means p<0.05 vs. R6/2-vehicle.

[6] = tested on: NLRP3 inflammasome in BV2 microglia; test: IL-1β ELISA in LPS-primed, ATP-activated BV2 microglia; format: cell-based; conditions: 1 μg/ml LPS 5 h, 1 or 5 μM Antcin H 0.5 h, 1 mM ATP 24 h
Experimental: as §2, §6

activated microglia = test: lba-1 immunofluorescence staining for activated microglia in striatum of R6/2 mice; format: in vivo; conditions: 10 mg/kg oral gavage daily, age 7 to 12 weeks, vs vehicle-treated R6/2 mice
Experimental: as §7, §4, §8

[7] = age 7 to 12 weeks, vs vehicle-treated R6/2 mice

With `C=C(CCC(=C)[C@H]1CCC2C3=C(C(=O)[C@H](O)[C@@]21C)[C@@]1(C)CC[C@@H](O)[C@@H](C)C1CC3=O)C(C)C(=O)O` (some centres unmarked) [Antcin H] the “ATP-induced IL-1β secretion (IL-1β levels in the supernatants, ELISA)” value [1] was “inhibited by Antcin H (FIG. 6A) in a dose-dependent manner”, the “neuronal cells number in the brain (NeuN, confocal microscope)” value (R6/2 mice [2]; [7]) was “significant increased” and the “NeuN protein expression in the brain (Western blotting)” value (R6/2 mice [2]; brain lysates at age of 12 weeks) was “increasing expression of NeuN protein”. The “cell survival ratio (CCK-8 assay)” value (STHdh^Q109 cells [3]; 5 μM Antcin H) was “higher survival ratio then vehicle-treated cells”, the “cell survival ratio (CCK-8 assay)” value (STHdh^Q109 cells [3]; 10 μM Antcin H) was “higher survival ratio then vehicle-treated cells” and the “expression level of NLRP3, Western blotting” value (BV2 microglia) was “reduced the expression levels”. The “expression level of inducible nitric oxide synthase (iNOS), Western blotting” value (BV2 microglia) was “reduced the expression levels”, the “number of NLRP3 positive cells in striatum” value (NLRP3) was “significantly reduced the number of NLRP3 positive cells” and the “intracellular ROS levels” value (STHdh^Q109 cells [4]) was “significantly reduced the intracellular ROS levels”. For the same compound, the “mutant huntingtin aggregation in the striatum” value (mutant huntingtin (mHtt)) was “reduced the mutant huntingtin aggregation”, the “ATP-induced ROS production” value (J774A.1 macrophages) was “significantly reduced ATP-induced ROS production” and the “rotarod performance (latency to fall)” value (R6/2 mice [5]; age 7 to 12 weeks, 12 rpm, 2 min) was “increased latency to fall”. For the same compound, the body weight (R6/2 mice [5]; [7]) was “higher weekly weight gain”, the survival rate (R6/2 mice [5]; at 12 weeks of age) was 100% and the clasping score (R6/2 mice [5]; at 12 weeks of age, vs vehicle-treated R6/2 mice) was “lower clasping score”. For the same compound, the “ATP-induced IL-1β expression (IL-1β levels in the supernatants, ELISA)” value [6] was “reduced ATP-induced IL-1β expression” and the “number of lba-1 positive cells in striatum” value (activated microglia) was “decreased”.
